Data taken from paper PMC3914206.

Columns and labels:
Type in all cases: binding
Parameters in all cases: KINOMEscan: ABL1(F317L)-phosphorylated / KINOMEscan: ABL1(H396P)-nonphosphorylated / KINOMEscan: ABL1(H396P)-phosphorylated / KINOMEscan: ABL1(M351T)-phosphorylated / KINOMEscan: ABL1(T315I)-phosphorylated / KINOMEscan: ABL1-nonphosphorylated / KINOMEscan: ABL1-phosphorylated / KINOMEscan: ACVR2A / KINOMEscan: ACVR2B / KINOMEscan: ADCK3 / KINOMEscan: ADCK4 / KINOMEscan: AKT1 / KINOMEscan: AKT3 / KINOMEscan: ALK / KINOMEscan: ARK5 / KINOMEscan: AURKA / KINOMEscan: AURKC / KINOMEscan: BIKE / KINOMEscan: BMPR1A / KINOMEscan: BMPR1B / KINOMEscan: BMX / KINOMEscan: BRK / KINOMEscan: BRSK1 / KINOMEscan: BRSK2 / KINOMEscan: CAMK1 / KINOMEscan: CAMK1D / KINOMEscan: CAMK1G / KINOMEscan: CAMK2A / KINOMEscan: CAMK2B / KINOMEscan: AAK1 / KINOMEscan: CAMK2D / KINOMEscan: CAMK2G / KINOMEscan: ABL1(F317I)-nonphosphorylated / KINOMEscan: ABL1(F317I)-phosphorylated / KINOMEscan: ABL1(F317L)-nonphosphorylated: unit: % Ctrl
Conditions in all cases: Compound Concentration 10 µM
panel of 442 kinases [1] = target: T1, panel of 442 kinases (Homo sapiens, UniProt P07949, V804L)
T1 construct: purchased KINOMEscan
Source text: (§1) We assessed the selectivity of members of this scaffold using the KINOMEscan methodology across a near comprehensive panel of 442 kinases [[18,27]].

panel of 442 kinases [2] = target: T2, panel of 442 kinases (Homo sapiens, UniProt Q8NI60)
T2 construct: purchased KINOMEscan
Source text: as §1

panel of 442 kinases [3] = target: T3, panel of 442 kinases (Homo sapiens, UniProt P49761)
T3 construct: purchased KINOMEscan
Source text: as §1

panel of 442 kinases [4] = target: T4, panel of 442 kinases (Homo sapiens, UniProt P00519, E255K)
T4 construct: purchased KINOMEscan
Source text: as §1

T3 sequence (P49761 whole entry): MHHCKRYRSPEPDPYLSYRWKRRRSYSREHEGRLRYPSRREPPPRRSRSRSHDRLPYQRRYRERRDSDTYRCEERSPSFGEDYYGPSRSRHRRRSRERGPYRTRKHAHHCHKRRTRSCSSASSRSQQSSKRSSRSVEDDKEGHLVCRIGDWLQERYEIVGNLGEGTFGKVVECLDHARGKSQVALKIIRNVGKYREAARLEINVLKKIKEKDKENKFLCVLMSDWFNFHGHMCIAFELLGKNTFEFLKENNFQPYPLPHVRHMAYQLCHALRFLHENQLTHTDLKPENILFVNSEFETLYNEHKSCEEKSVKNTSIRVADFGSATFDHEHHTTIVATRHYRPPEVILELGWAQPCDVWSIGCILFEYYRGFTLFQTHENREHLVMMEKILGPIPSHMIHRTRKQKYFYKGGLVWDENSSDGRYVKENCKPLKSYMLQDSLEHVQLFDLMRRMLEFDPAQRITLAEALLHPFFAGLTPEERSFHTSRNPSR
T1 sequence (P07949 29-1114 V804L): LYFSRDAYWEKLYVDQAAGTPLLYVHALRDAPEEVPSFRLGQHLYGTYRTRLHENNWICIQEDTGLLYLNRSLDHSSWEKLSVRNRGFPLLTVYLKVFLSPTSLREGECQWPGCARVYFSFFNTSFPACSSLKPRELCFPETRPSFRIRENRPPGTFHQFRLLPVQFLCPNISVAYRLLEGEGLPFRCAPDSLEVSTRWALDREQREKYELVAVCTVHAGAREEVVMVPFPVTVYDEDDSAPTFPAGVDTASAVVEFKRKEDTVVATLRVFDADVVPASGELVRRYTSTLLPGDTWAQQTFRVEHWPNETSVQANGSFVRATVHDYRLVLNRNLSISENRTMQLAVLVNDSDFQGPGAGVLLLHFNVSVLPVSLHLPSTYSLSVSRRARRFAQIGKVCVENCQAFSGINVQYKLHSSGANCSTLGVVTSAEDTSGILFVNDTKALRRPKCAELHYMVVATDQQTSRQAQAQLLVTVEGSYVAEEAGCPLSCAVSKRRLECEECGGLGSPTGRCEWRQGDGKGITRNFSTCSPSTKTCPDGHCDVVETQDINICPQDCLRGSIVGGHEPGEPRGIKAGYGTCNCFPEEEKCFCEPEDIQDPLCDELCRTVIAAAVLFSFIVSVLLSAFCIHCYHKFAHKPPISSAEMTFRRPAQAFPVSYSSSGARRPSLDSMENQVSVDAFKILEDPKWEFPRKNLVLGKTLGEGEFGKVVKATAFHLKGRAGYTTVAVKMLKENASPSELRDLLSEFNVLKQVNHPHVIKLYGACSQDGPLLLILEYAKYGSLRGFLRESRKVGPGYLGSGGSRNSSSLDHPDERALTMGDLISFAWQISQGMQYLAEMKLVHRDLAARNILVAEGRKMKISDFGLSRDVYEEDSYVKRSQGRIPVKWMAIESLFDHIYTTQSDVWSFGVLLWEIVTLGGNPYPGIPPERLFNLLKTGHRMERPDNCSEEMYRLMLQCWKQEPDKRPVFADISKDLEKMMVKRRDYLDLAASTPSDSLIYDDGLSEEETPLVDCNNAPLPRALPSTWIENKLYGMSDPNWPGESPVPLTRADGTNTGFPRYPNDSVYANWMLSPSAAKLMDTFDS
T4 sequence (P00519 whole entry E255K): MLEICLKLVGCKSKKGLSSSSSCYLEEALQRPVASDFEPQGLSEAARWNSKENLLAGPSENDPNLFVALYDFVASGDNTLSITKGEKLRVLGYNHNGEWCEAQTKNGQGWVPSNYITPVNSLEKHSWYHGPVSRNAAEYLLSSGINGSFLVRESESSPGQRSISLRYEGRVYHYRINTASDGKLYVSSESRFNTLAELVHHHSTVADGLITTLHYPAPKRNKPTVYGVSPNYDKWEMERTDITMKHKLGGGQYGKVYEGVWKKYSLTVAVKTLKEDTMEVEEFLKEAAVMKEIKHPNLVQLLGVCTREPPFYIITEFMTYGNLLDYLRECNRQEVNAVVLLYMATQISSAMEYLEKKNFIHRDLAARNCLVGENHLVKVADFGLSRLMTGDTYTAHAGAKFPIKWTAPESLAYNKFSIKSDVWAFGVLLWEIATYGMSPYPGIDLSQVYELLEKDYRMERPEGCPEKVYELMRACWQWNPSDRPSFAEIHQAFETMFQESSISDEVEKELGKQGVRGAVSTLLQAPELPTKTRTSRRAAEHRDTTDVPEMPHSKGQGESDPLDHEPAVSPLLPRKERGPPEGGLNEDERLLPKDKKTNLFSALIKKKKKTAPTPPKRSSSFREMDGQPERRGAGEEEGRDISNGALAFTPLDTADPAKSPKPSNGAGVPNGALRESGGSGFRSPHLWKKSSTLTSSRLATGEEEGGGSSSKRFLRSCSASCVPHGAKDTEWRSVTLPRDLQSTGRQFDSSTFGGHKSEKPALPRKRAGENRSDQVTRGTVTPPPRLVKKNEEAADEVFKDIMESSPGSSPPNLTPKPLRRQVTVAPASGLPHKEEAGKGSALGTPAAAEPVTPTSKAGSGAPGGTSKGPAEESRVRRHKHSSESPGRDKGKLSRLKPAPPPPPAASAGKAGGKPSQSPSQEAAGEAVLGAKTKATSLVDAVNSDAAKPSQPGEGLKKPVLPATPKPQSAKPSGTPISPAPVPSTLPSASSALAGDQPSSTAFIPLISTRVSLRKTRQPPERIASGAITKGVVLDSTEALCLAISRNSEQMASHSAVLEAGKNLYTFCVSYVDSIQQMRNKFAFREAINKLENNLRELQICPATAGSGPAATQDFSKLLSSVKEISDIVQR
T2 sequence (Q8NI60 163-647): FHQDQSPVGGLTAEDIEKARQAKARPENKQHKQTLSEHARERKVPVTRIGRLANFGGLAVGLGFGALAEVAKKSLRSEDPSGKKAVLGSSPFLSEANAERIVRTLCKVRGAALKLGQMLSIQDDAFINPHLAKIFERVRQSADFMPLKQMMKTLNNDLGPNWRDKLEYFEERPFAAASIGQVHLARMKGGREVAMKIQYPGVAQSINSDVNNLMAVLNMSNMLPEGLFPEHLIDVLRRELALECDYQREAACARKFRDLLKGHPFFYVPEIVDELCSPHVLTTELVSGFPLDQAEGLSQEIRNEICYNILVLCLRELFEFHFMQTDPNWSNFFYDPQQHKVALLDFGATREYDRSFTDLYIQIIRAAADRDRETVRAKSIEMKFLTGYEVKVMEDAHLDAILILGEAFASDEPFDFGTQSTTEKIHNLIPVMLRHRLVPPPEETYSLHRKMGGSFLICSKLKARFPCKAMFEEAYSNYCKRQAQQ

## CCOc1cc(C(=O)N2CCC(N3CCN(C)CC3)CC2)ccc1Nc1ncc2c(n1)N(C1CCCC1)c1ccccc1C(=O)N2C [Compound 26]
Panel of 442 kinases [1]
  KINOMEscan: RET(V804L): 100
Panel of 442 kinases [2]
  KINOMEscan: ADCK3: 59
Panel of 442 kinases [3]
  KINOMEscan: CLK3: 100
Panel of 442 kinases [4]
  KINOMEscan: ABL1(E255K)-phosphorylated: 100

## COc1cc(C(=O)N2CCC(N3CCN(C)CC3)CC2)ccc1Nc1ncc2c(n1)N1CCc3cccc(c31)C(=O)N2C [Compound 24]
Panel of 442 kinases [1]
  KINOMEscan: RET(V804L): 77
Panel of 442 kinases [2]
  KINOMEscan: ADCK3: 56
Panel of 442 kinases [3]
  KINOMEscan: CLK3: 80

## COc1cc(C(=O)N2CCC(N3CCN(C)CC3)CC2)ccc1Nc1ncc2c(n1)N(C)c1ccccc1C(=O)N2C [15 (LRRK2-IN-1)]
Panel of 442 kinases [1]
  KINOMEscan: RET(V804L): 89
Panel of 442 kinases [2]
  KINOMEscan: ADCK3: 71
Panel of 442 kinases [3]
  KINOMEscan: CLK3: 95
Panel of 442 kinases [4]
  KINOMEscan: ABL1(E255K)-phosphorylated: 80

## COc1cc(C(=O)N2CCC(N3CCN(C)CC3)CC2)ccc1Nc1ncc2c(n1)N(C1CCCC1)c1ccccc1C(=O)N2C [Compound 25, 11-cyclopentyl-2-((2-methoxy-4-(4-(4-methylpiperazin-1-yl)piperidine-1-carbonyl)phenyl)amino)-5-methyl-5H-benzo[e]pyrimido[5,4-b][1,4]diazepin-6(11H)-one]
Panel of 442 kinases [1]
  KINOMEscan: RET(V804L): 100
Panel of 442 kinases [2]
  KINOMEscan: ADCK3: 61
Panel of 442 kinases [3]
  KINOMEscan: CLK3: 100
Panel of 442 kinases [4]
  KINOMEscan: ABL1(E255K)-phosphorylated: 92
